Our source for the Kd and IC50 values is patent US11014908B2, “Chemical compounds” (Pfizer Inc., priority 2018, dated 2021).

SMILES strings stand for the structures.

Test [1] concerns the target T1, purified sickle cell hemoglobin (HbS) (Homo sapiens, UniProt P68871+P69905, E7V).
T1 construct: HbS was obtained from the blood of homozygous S/S patients; from tissue; host or cells: red blood cells of homozygous S/S patients
The test is described as follows: Binding affinity to purified HbS by Surface Plasmon Resonance (SPR). The note with it: crosslinked biotinylated HbS, 1:1 binding model. As for the experimental part: Binding Affinity, Kd (uM)
The binding affinity for compounds to purified sickle cell hemoglobin (HbS) was determined using Surface Plasmon Resonance (SPR). Patient Sickle Cell blood was obtained from Boston Children's Hospital in accordance with Institutional Review Board protocols. HbS was obtained from the blood of homozygous S/S patients, and purified using the method described in: Antonini and Brunori, Hemoglobin and Myoglobin in their Reactions with Ligands. Amsterdam, London, North-Holland Publishing Company, 1971. Whole blood was separated into red blood cell and plasma components by centrifugation, after which the plasma was decanted and discarded. Packed red blood cells were washed with normal saline (0.9% NaCl) and then lysed by 2:1 dilution with cold deionized water. The hemolysate was centrifuged to remove cellular debris, and further purified with the addition of Drabkin's Buffer (2.8 M potassium phosphate), and centrifugation with Celite®. Organic phosphates (2,3-BPG) were removed via gel filtration with Sephadex® G-25. HbS and wild-type hemoglobin, hemoglobin A (HbA), were separated by […], using diethylaminoethyl (DEAE)-Sepharose® fast flow, and eluted using a pH gradient from pH 8.5-pH 7.5. Purity of the resulting HbS and HbA was determined by native gel electrophoresis and HbS fractions used further.
To stabilize the tetrameric structure of hemoglobin, HbS was crosslinked between the beta subunits (Lys82-Lys82) using bis(3,5-dibromosalicyl) fumarate, as described in: Shibayama N. et al, J Am Chem Soc 2014, 136, 13, 5097-5105 and Shibayama N. et al, Biochemistry 1991, 39, 33, 8158-8165). Crosslinked HbS was subsequently biotynylated and captured on a custom made Streptavidin sensor to achieve protein density of 4000 to 5000 resonance units (RUs) on the surface. Compound binding to HbS using SPR was tested on Sierra Sensors MASS-1 instrument. The running buffer contained 100 mM Potassium Phosphate, pH 7.5, 0.005% Tween-20, 1 mM ethylenediaminetetraacetic acid (EDTA), 0.1 mg/mL bovine serum albumin with 1% DMSO. Compound samples were injected at a flow rate of 30 μL/min for 2 minutes association and at least 5 minutes of dissociation time. A 2- or 3-fold dilution series containing at least 4 concentrations were tested for each compound. The dose range was selected based on the activity of the compounds in biochemical assays, when available. Multiple blank injections of running buffer were run before and after each compound series to allow blank subtraction for compound data in the analysis software. Positive controls were run in each experiment to monitor and maintain the activity of HbS on the surface. A DMSO curve was run at the beginning of each data set to apply an excluded volume correction to the data during analysis. The data were processed and analyzed using Sierra Sensors and Scrubber 2.0 software. The binding affinities (dissociation constant Kd) were calculated by fitting the sensorgrams to a 1:1 binding model.

The target of a further test is T2, HbS (Homo sapiens, UniProt P68871+P69905, E7V).
T2 construct: HbS was obtained from the blood of homozygous S/S patients; from tissue; host or cells: red blood cells of homozygous S/S patients
The experiment in a line: 'R'-'T' assay (conversion of oxy HbS to deoxy HbS under deoxygenating conditions). It is filed as biochemical. The note with it: 50% inhibition of HbS 'R'-'T' conversion; 3 uM HbS, <1% O2. As for the experimental part: Conversion from oxy (R, relaxed state) to deoxy (T, tense state) HbS in the presence of compound was performed to determine the ability of compounds to stabilize the oxy (R) state under deoxygenating conditions. The assay run was similar to the ‘Oxygen dissociation assay’ described in Oksenberg et al, Br J Haematology, 2016, 175, 141-153.
Assay ready compound plates were prepared by first preparing a master serial dilution plate from a 30 mM initial compound stock in 100% DMSO. From this master serial dilution plate, 167 nL of the desired compound concentration was delivered to the assay ready plates using acoustical dispensing. Plates were frozen at −20° C. until needed. Purified HbS-O2 (i.e. oxy HbS) was diluted to 3 uM in 100 mM potassium phosphate buffer, pH=7.4. 50 uL of 3 uM stock solution was added to each well of the assay ready plate and mechanically mixed eight times. Following mixing the plates were covered and incubated at room temperature for one hour with moderate shaking. Following incubation, the plates were placed in a deoxygenated environment (<1% O2) for two hours, and the conversion to deoxy HbS monitored as a function of time. Oxygenated and deoxygenated forms of hemoglobin were detected using the absorbance of the Soret peaks at 415 and 430 nm respectively, and absorbance measurements (optical density, OD) were taken at 0, 90 and 120 minutes. Background absorbance for correction was collected at 700 nm.
Data were analyzed by first subtracting baseline absorbance at 700 nm from 415 nm and 430 nm data at each timepoint, and then taking the ratio of 415/430 nm data (Ratio=[(OD415−OD700)/(OD430−OD700)]. The effect at each timepoint was calculated using the ratios from the previous calculation at time 0 and each time point of interest (Effect^time x=Ratio^time x/Ratio^time 0). Percent effect was calculated by comparing the effects of compound versus HbS only with the effects observed by the positive control compound tucaresol (percent effect=[(effect^time x compound−effect^time x HbS)/(effect^time x tucaresol−effect^time x HbS)]×100). Data were reported as the percent effect for a single point. Calculations to determine the concentration of compound for 50% inhibition (IC50 (uM)) of the HbS ‘R’-‘T’ conversion were based on the percent effect at varying compound concentration.

One may read the Kd as the constant that tells how readily two partners part at equilibrium. Read a low Kd as higher affinity. What is called IC50 is the point on the concentration scale where inhibition reaches its midpoint. In the case of `C[C@H](Oc1cc2cc(F)ccc2nc1N)c1nc(OCCO)ccc1-n1cccn1` [Example 41, 2-{[6-{(1S)-1-[(2-amino-6-fluoroquinolin-3-yl)oxy]ethyl}-5-(1H-pyrazol-1-yl)pyridin-2-yl]oxy}ethanol], in test [1], the Kd stood at 0.044 µM. The IC50 at HbS amounted to 3.83 µM.

In turn, `C[C@H](Oc1cc2cc(F)cc(F)c2nc1N)c1cc2c(cnn2CCO)cc1-n1cccn1` [Example 72, 2-[6-{(1S)-1-[(2-amino-6,8-difluoroquinolin-3-yl)oxy]ethyl}-5-(1H-pyrazol-1-yl)-1H-indazol-1-yl]ethanol] registered a Kd in test [1] of 0.011 µM. Also, at HbS, the IC50 is 3.03 µM.

`C[C@H](O)c1ccc2nc(N)c(O[C@@H](C)c3nc(O)ccc3-n3cccn3)cc2c1` [Example 52, 6-[(1S)-1-({2-amino-6-[(1S)-1-hydroxyethyl]quinolin-3-yl}oxy)ethyl]-5-(1H-pyrazol-1-yl)pyridin-2-ol] registered a Kd in test [1] of 10 µM. The molecule further showed an IC50 at HbS of 100 µM.

In test [1], `C[C@H](Oc1cc2cc(F)c(Cl)cc2nc1N)c1ncccc1-n1cccn1` [Example 29, 7-chloro-6-fluoro-3-{(1S)-1-[3-(1H-pyrazol-1-yl)pyridin-2-yl]ethoxy}quinolin-2-amine] had a Kd of 0.067 µM. Besides, at HbS, the IC50 stood at 4.58 µM.

With `C[C@H](Oc1cc2cc(F)ccc2nc1N)c1cc(C(=O)NCCCO)ccc1-n1cccn1` [Example 13, 3-{(1S)-1-[(2-amino-6-fluoroquinolin-3-yl)oxy]ethyl}-N-(3-hydroxypropyl)-4-(1H-pyrazol-1-yl)benzamide], the Kd in test [1] was determined as 0.065 µM. Besides, the IC50 at HbS was determined as 4.33 µM.

With `C[C@H](Oc1cc2cc(Br)ccc2nc1N)c1cc(C(N)=O)ccc1-n1cccn1` (single isomer, unassigned) [Example 3], binding in test [1] was put at a Kd of 0.067 µM. Further, on HbS, 5.06 µM corresponded to half-maximal inhibition (IC50).

`C[C@H](Oc1cc2ncc(F)cc2nc1N)c1nc(O)ccc1-n1cccn1` [Example 48, 6-{(1S)-1-[(2-amino-7-fluoro-1,5-naphthyridin-3-yl)oxy]ethyl}-5-(1H-pyrazol-1-yl)pyridin-2-ol] returned a Kd in test [1] of 0.253 µM. Besides, the IC50 at HbS is 4.71 µM.

`COc1ccc(-n2cccn2)c([C@H](C)Oc2cc3cc(F)ccc3nc2N)n1` [Example 57, 6-fluoro-3-{(1S)-1-[6-methoxy-3-(1H-pyrazol-1-yl)pyridin-2-yl]ethoxy}quinolin-2-amine] registered a Kd in test [1] of 0.184 µM. 4.84 µM corresponded to half-maximal inhibition at HbS (IC50).

Take `C[C@H](Oc1cc2cc(F)ccc2nc1N)c1cc(C(N)=O)c(F)cc1-n1cccn1` [Example 1, 5-{(1S)-1-[(2-amino-6-fluoroquinolin-3-yl)oxy]ethyl}-2-fluoro-4-(1H-pyrazol-1-yl)benzamide]: binding in test [1] was put at a Kd of 0.02 µM. For the same molecule, the IC50 against HbS turned out to be 4.5 µM.

In test [1], `C[C@H](Oc1cc2c(F)ccc(F)c2nc1N)c1cc(C(=O)O)ccc1-n1cccn1` [Example 19, 3-{(1S)-1-[(2-amino-5,8-difluoroquinolin-3-yl)oxy]ethyl}-4-(1H-pyrazol-1-yl)benzoic Acid] yielded a dissociation constant (Kd) of 0.064 µM. For the same molecule, the IC50 against HbS came to 4.5 µM.

The molecule `C[C@H](Oc1cc2cc(F)ccc2nc1N)c1cc(CCC(=O)O)ccc1-n1cccn1` [Example 16, 3-[3-{(1S)-1-[(2-amino-6-fluoroquinolin-3-yl)oxy]ethyl}-4-(1H-pyrazol-1-yl)phenyl]propanoic Acid] showed a Kd in test [1] of 0.188 µM. Moreover, at HbS, 3.6 µM corresponded to half-maximal inhibition (IC50).

`C[C@H](Oc1cc2cc(F)ccc2nc1N)c1cc(CC(=O)O)ccc1-n1cccn1` (single isomer, unassigned) [Example 8] gave a Kd in test [1] of 0.271 µM. Also, at HbS, inhibition was half-maximal at 7.18 µM (IC50).

In the case of `Cc1cc2nc(N)c(O[C@@H](C)c3nc4c(cnn4CCO)cc3-n3cccn3)cc2cn1` [Example 77, 2-[6-{(1S)-1-[(2-amino-7-methyl-1,6-naphthyridin-3-yl)oxy]ethyl}-5-(1H-pyrazol-1-yl)-1H-pyrazolo[3,4-b]pyridin-1-yl]ethanol], the affinity in test [1], expressed as Kd, was 0.195 µM. The molecule also registered an IC50 at HbS of 6.3 µM.

Regarding `C[C@H](Oc1cc2cc(F)ccc2nc1N)c1cc(-c2noc(=O)[nH]2)ccc1-n1cccn1` [Example 17, 3-[3-{(1S)-1-[(2-amino-6-fluoroquinolin-3-yl)oxy]ethyl}-4-(1H-pyrazol-1-yl)phenyl]-1,2,4-oxadiazol-5(4H)-one], the Kd in test [1] came out at 0.014 µM. Moreover, it took 5.05 µM to reach half-maximal inhibition against HbS (IC50).

In the case of `C[C@H](Oc1cc2cc(F)c(Cl)cc2nc1N)c1cc2[nH]ncc2cc1-n1cccn1` [Example 60, 7-chloro-6-fluoro-3-{(1S)-1-[5-(1H-pyrazol-1-yl)-1H-indazol-6-yl]ethoxy}quinolin-2-amine], in test [1], the Kd was 0.055 µM. The same molecule had an IC50 on HbS of 4.11 µM.

Turning to `C[C@H](Oc1cc2cc(C(N)=O)c(F)cc2nc1N)c1ncc(F)cc1-n1cccn1` [Example 34, 2-amino-7-fluoro-3-{(1S)-1-[5-fluoro-3-(1H-pyrazol-1-yl)pyridin-2-yl]ethoxy}quinoline-6-carboxamide], the Kd in test [1] was 0.121 µM. Moreover, at HbS, the IC50 is 5.53 µM.

Consider `C[C@H](Oc1cc2cc(C(N)=O)ccc2nc1N)c1nc(CO)ccc1-n1cccn1` [Example 55, 2-amino-3-{(1S)-1-[6-(hydroxymethyl)-3-(1H-pyrazol-1-yl)pyridin-2-yl]ethoxy}quinoline-6-carboxamide], for which the affinity in test [1], expressed as Kd, was 0.406 µM. The IC50 at HbS turned out to be 5.71 µM.

The molecule `C[C@H](Oc1cc2cc(F)ccc2nc1N)c1cc(C(=O)NCCO)ccc1-n1cccn1` [Example 12, 3-{(1S)-1-[(2-amino-6-fluoroquinolin-3-yl)oxy]ethyl}-N-(2-hydroxyethyl)-4-(1H-pyrazol-1-yl)benzamide] gave a Kd in test [1] of 0.038 µM. On HbS, the half-maximal inhibitory concentration (IC50) turned out to be 4.48 µM.

For `C[C@H](Oc1cc2c(F)ccc(F)c2nc1N)c1ncc(F)cc1-n1cccn1` [Example 43, 5,8-difluoro-3-{(1S)-1-[5-fluoro-3-(1H-pyrazol-1-yl)pyridin-2-yl]ethoxy}quinolin-2-amine], the affinity in test [1], expressed as Kd, was 0.02 µM. The same molecule had an IC50 against HbS of 4.63 µM.

For `C[C@H](Oc1cc2cc(F)c(Cl)cc2nc1N)c1nc(C(N)=O)ccc1-n1cccn1` [Example 32, 6-{(1S)-1-[(2-amino-7-chloro-6-fluoroquinolin-3-yl)oxy]ethyl}-5-(1H-pyrazol-1-yl)pyridine-2-carboxamide], the Kd in test [1] was 0.057 µM. The molecule further came in with an IC50 at HbS of 4.75 µM.

In the case of `Cc1ccc2nc(N)c(O[C@@H](C)c3nc(O)ccc3-n3cccn3)cc2n1` [Example 54, 6-{(1S)-1-[(2-amino-6-methyl-1,5-naphthyridin-3-yl)oxy]ethyl}-5-(1H-pyrazol-1-yl)pyridin-2-ol], the Kd in test [1] came to 0.892 µM. Moreover, the IC50 against HbS is 11.2 µM.
